Consider three compounds from PMC5413024, “Mechanistic insights into the more potent effect of KP-54 compared to KP-10 in vivo” (PLoS ONE, 2017).

The conditions of data set [1]: men / humans; ref [5], [30] (KP-10), ref [5] (KP-54); cited from earlier work. The text has this:
It should be noted, however that the RIA used to measure KP-54 may also detect shorter breakdown products of this protein that might be biologically inert. It is likely that the lack of GnRH neuronal activation and sustained LH release by KP-10 is mainly due to its instability. It is noteworthy that we failed ...

Data set [2] in a line: Study 4: pharmacokinetics of plasma kisspeptin after i.p. injection (radioimmunoassay). The format is in vivo, mouse. The settings on record: male mice. The protocol: Male mice received a single i.p. injection of 1 nmol KP-10 or 1 nmol KP-54. 100 μl of blood was collected from the lateral tail vein from groups of mice (n = 4) for each time point (0, 1 min, 2 min, 5 min, 10 min, 30 min, 60 min and 120 min). Terminal bleeds were collected from the vena cava. Blood was mixed with 5 μl EDTA, centrifuged at 10,000 x g for 10 min at 4°C to obtain the plasma fraction, and stored at -20°C until assayed. Kisspeptin concentrations were measured using an established in house competitive radioimmunoassay (RIA, [5]. Briefly, this RIA uses a sheep polyclonal antibody (GQ2), raised against human KP-54, which cross-reacts with human KP-54, KP-14 and KP-10.
3–5 month old wild-type (129S6/SvEv) male mice were used in this study. The mice were housed in open cages on a 12 hour light cycle (lights on at 0700 h) at a controlled temperature (22°C), and were provided with food and water ad libitum. All experiments were performed under the authority of a United Kingdom Home Office Project License and were approved by a Cambridge Animal Ethics Committee.

For data set [3] the following is noted: from the product data sheets; ref product data sheets (manufacturer); cited from earlier work. The method, then:
KP-10 [human Metastin (45–54) amide, M-2816] was purchased from Sigma-Aldrich. KP-10 consists of the C-terminal 10-amino acids of KP-54. Human KP-54 was synthesized by the Advanced Biotechnology Centre, Imperial College, London, UK. BSA-FITC was purchased from Sigma (A9771). From the product data sheets, the solubility of KP-10 and KP-54 in water is 1mg/ml. We prepared stock solutions in sterile PBS at 100 μM, which is almost ten times lower than the solubility limit set by the manufacturer. The 100 μM stock solution was diluted in sterile PBS and 100 μl of the working solution was injected to ...

For data set [4], the system named is LH secretion. In words: S1 Fig: plasma LH after i.p. injection of penetratin-extended Kp10. In kind it is in vivo, mouse. The settings on record: single 100 μl i.p. injection, blood at 10 min and 2 hrs, n = 2 per treatment. The protocol:
Supplementary file pone.0176821.s001.tif: S1 Fig Kisspeptin-penetratin treatment. This experiment aimed at facilitating Kp10 to cross the blood-brain-barrier by adding a penetratin extension to the […] end of Kp10, thereby putatively provided with higher permeability. Two penetratin variants were tested: the pen(ala2) residue has a lower protein transduction domain activity than pen-Kp10. […] Each animal received a single 100 μl i.p. injection of either PBS, Kp10, Kp54, Pen-Kp10 or Pen(ala2)-Kp10. Blood samples were collected at 10 min (from tail vein) and 2 hrs (from vena cava upon sacrifice) time points after administration. […] (TIF) Click here for additional data file.

In brackets after ≈: the same amount, converted by molar mass. Ends that are not written are not given here.

In the case of `CC(C)C[C@H](NC(=O)CNC(=O)[C@H](Cc1ccccc1)NC(=O)[C@H](CO)NC(=O)[C@H](CC(N)=O)NC(=O)[C@H](Cc1c[nH]c2ccccc12)NC(=O)[C@H](CC(N)=O)NC(=O)[C@@H](N)Cc1ccc(O)cc1)C(=O)N[C@@H](CCCNC(=N)N)C(=O)N[C@@H](Cc1ccccc1)C(N)=O` [KP-10, human Metastin (45–54) amide], in data set [1], the “half-life in the blood stream in humans” value is 3.8 min. Moreover, the “peak (maximum) plasma kisspeptin level” value in data set [2] (1 nmol i.p., RIA (GQ2 antibody), mean ± SEM, n = 4 per time point) came out at 248 ± 9 pmol/L. In addition, the “plasma kisspeptin level by 10 min post-injection” value in data set [2] (1 nmol i.p., RIA, n = 4) is on record as “undetectable”. The “time of peak plasma kisspeptin level post-injection” value in data set [2] (1 nmol i.p., RIA, n = 4 per time point) is given as 2 min. The plasma half-life entry in data set [2] (1 nmol i.p., estimated from RIA plasma levels, RIA recognises all forms of Kp, may include breakdown products) is “about 4 min”. Moreover, the “fraction of the injected peptide entering the bloodstream after intraperitoneal injection” value in data set [2] (1 nmol i.p., assuming a total blood volume of approximately 5 ml) is “around 0.13%”. Also, the “peak level in the bloodstream, times lower than that of KP-54” value in data set [2] (equimolar 1 nmole i.p., 250 pmol/L vs 12000 pmol/L) was approximately 50 times. The solubility in water in data set [3] was 1000 µg/mL (≈ 768 µM).

Regarding “NRRMAWAKYYNWNSFGLRF-NH2 [Pen(ala2)-Kp10]”, the “effect of penetratin extension on Kp10-induced LH secretion” value in data set [4] is recorded as “does not improve the Kp10-induced LH secretion”.

As for NRRMKWKKYYNWNSFGLRF-NH2 [Pen-Kp10], in data set [4], the “effect of penetratin extension on Kp10-induced LH secretion” value is recorded as “does not improve the Kp10-induced LH secretion”.
